According to ChEMBL document CHEMBL6092181, “Design, synthesis, and biological evaluation of imidazo[4,5-b]pyridine mitochondrial uncouplers for the treatment of metabolic dysfunction-associated steatohepatitis (MASH)” (Eur J Med Chem, 2024):
Activity calls are given as the source filed them. The rule behind the calls is not given here.

Legend:
[1] = Half-life in C57BL/6 mouse at 10 mg/kg, po by LC-MS/MS method; type: ADME, organism-based; details: in vivo
[2] = tested on: L6; experiment: Uncoupling activity in rat L6 myoblasts assessed as oxygen consumption rate incubated over 90 mins; type: functional, cell-based
[3] = Cmax in C57BL/6 mouse at 10 mg/kg, po by LC-MS/MS method; type: ADME, organism-based; details: in vivo
[4] = tested on: L6; experiment: Uncoupling activity in rat L6 myoblasts assessed as oxygen consumption rate incubated for 2 mins relative to N5,N6-bis(2-fluorophenyl)-[1,2,5]oxadiazolo[3,4-b]pyrazine-5,6-diamine; type: functional
[5] = tested on: Mus musculus; experiment: Anti-MASH activity in GAN-diet induced metabolic dysfunction associated steatohepatitis in C57BL/6 mouse assessed as change in plasma triglyceride level at 100 to 300 mg/kg, po administered daily measured after 4 weeks; type: functional, organism-based; details: dose 100-300 mg/kg
[6] = tested on: Mus musculus; experiment: Anti-MASH activity in GAN-diet induced metabolic dysfunction associated steatohepatitis in C57BL/6 mouse assessed as change in liver size at 100 to 300 mg/kg, po administered daily measured after 4 weeks; type: functional, organism-based; details: dose 100-300 mg/kg
[7] = Toxicity in C57BL/6 mouse assessed as change in appetite at 30 to 1000 mg/kg, po measured after 24 hrs; type: organism-based; details: in vivo, dose 30-1000 mg/kg
[8] = tested on: L6; experiment: Uncoupling activity in rat L6 cells assessed as increase in oxygen consumption rate incubated for 40 mins in presence of antimycin A; type: functional, cell-based
[9] = tested on: L6; experiment: Uncoupling activity in rat L6 cells assessed as increase in oxygen consumption rate incubated for 40 mins in presence of rotenone; type: functional, cell-based
[10] = Induction of respiration in rat L6 cells assessed as oxygen consumption rate at 3.3 uM; type: functional
[11] = Toxicity in C57BL/6 mouse assessed as change in body weight at 100 to 300 mg/kg, po administered daily and measured after 31 days; type: organism-based; details: in vivo, 744 h, dose 100-300 mg/kg, time 31 day
[12] = Toxicity in C57BL/6 mouse assessed as adverse effect at 30 to 1000 mg/kg, po measured after 24 hrs; type: organism-based; details: in vivo, dose 30-1000 mg/kg
[13] = Induction of respiration in rat L6 cells assessed as oxygen consumption rate at 3.3 uM pretreated with compound followed by N5,N6-bis(2-fluorophenyl)-[1,2,5]oxadiazolo[3,4-b]pyrazine-5,6-diamine addition; type: functional
[14] = Toxicity in C57BL/6 mouse assessed as change in body weight at 30 to 1000 mg/kg, po measured after 24 hrs; type: organism-based; details: in vivo, dose 30-1000 mg/kg
[15] = Cmax in C57BL/6 mouse at 30 mg/kg, po by LC-MS/MS method; type: ADME, organism-based; details: in vivo
[16] = Half-life in C57BL/6 mouse at 30 mg/kg, po by LC-MS/MS method; type: ADME, organism-based; details: in vivo
[17] = tested on: Mus musculus; experiment: Anti-MASH activity in GAN-diet induced metabolic dysfunction associated steatohepatitis in C57BL/6 mouse assessed as decrease in liver triglyceride level at 100 to 300 mg/kg, po administered daily measured after 4 weeks; type: functional, organism-based; details: dose 100-300 mg/kg
[18] = tested on: Mus musculus; experiment: Anti-MASH activity in GAN-diet induced metabolic dysfunction associated steatohepatitis in C57BL/6 mouse assessed as change in plasma cholesterol level at 100 to 300 mg/kg, po administered daily measured after 4 weeks; type: functional, organism-based; details: dose 100-300 mg/kg
[19] = Toxicity in C57BL/6 mouse assessed as change in body temperature at 30 to 1000 mg/kg, po measured after 24 hrs; type: organism-based; details: in vivo, dose 30-1000 mg/kg
[20] = tested on: L6; experiment: Cytotoxicity against rat L6 cells; type: toxicity, cell-based
[21] = Rattus norvegicus, L6, 1.5 h, read-out: EC50

SMILES | EC50 [2, 21] [µM] | Activity [4] [%] | other results
FC(F)(F)c1ccc(-c2ccnc3[nH]c(C(F)(F)F)nc23)cc1 | 1.3 | 46 | half-life [1]: 204 min; Cmax [3]: 8 µM
Fc1ccc(Oc2ccc3nc(C(F)(F)F)[nH]c3n2)c(F)c1 | 12.6 | 43 | 
FC(F)(F)c1ccc(-c2ccc3nc(C(F)(F)F)[nH]c3n2)cc1 | 1 | 11 | 
FC(F)(F)c1cccc(-c2ncnc3[nH]c(C(F)(F)F)nc23)c1 | 1.2 | 46 | 
Cc1ccnc2[nH]c(C(F)(F)F)nc12 |  |  | EC50 ([2]; l6): Not_active
FC(F)(F)Oc1cccc(-c2ccc3nc(C(F)(F)F)[nH]c3n2)c1 | 1.4 | 8 | 
Fc1ccc(-c2ccnc3[nH]c(C(F)(F)F)nc23)c(F)c1 | 11 | 36 | 
FC(F)(F)Oc1ccc(-c2ccc3nc(C(F)(F)F)[nH]c3n2)cc1 | 1.3 | 2 | 
Fc1ccccc1-c1ccnc2[nH]c(C(F)(F)F)nc12 | 19.4 | 18 | 
FC(F)(F)c1ccc(-c2ccc3nc(C(F)(F)F)[nH]c3n2)cn1 | 11.9 | 47 | 
Fc1cc(F)cc(Oc2ccc3nc(C(F)(F)F)[nH]c3n2)c1 | 3.9 | 45 | 
CC(=O)c1ccc(-c2ccnc3[nH]c(C(F)(F)F)nc23)cc1 | > 100 | 21 | 
FC(F)(F)c1nc2c(Cl)ccnc2[nH]1 | 29.8 | 14 | 
Fc1cccc(-c2ccnc3[nH]c(C(F)(F)F)nc23)c1 | 8.2 | 32 | 
Cc1ccc(-c2ccnc3[nH]c(C(F)(F)F)nc23)cc1 |  |  | EC50 ([2]; l6): Not_active
Fc1cc(F)cc(-c2ccnc3[nH]c(C(F)(F)F)nc23)c1 | 1.5 | 42 | half-life [1]: 168 min; Cmax [3]: 37 µM
Fc1ccc(-c2ccnc3[nH]c(C(F)(F)F)nc23)cc1 | 4.4 | 6 | 
FC(F)(F)c1nc2c(-c3cc(Cl)cc(Cl)c3)ccnc2[nH]1 | 1.1 | 76 | half-life [1]: 1520 min; Cmax [3]: 13 µM
FC(F)c1nc2c(-c3ccc(C(F)(F)F)cc3)ccnc2[nH]1 |  |  | EC50 ([2]; l6): Not_active
FC(F)(F)Oc1ccc(-c2ccnc3[nH]c(C(F)(F)F)nc23)cc1 | 0.48 | 19 | 
FC(F)(F)c1cc(-c2ccnc3[nH]c(C(F)(F)F)nc23)cc(C(F)(F)F)c1 | > 100 | 45 | 
FC(F)(F)c1cccc(-c2ccnc3[nH]c(C(F)(F)F)nc23)c1 | 0.85 | 42 | half-life [1]: 330 min; Cmax [3]: 28 µM
Fc1ccc(F)c(-c2ccnc3[nH]c(C(F)(F)F)nc23)c1 | 15 | 54 | 
FC(F)(F)c1cccc(Oc2ccnc3[nH]c(C(F)(F)F)nc23)c1 | 3.7 | 20 | 

SMILES | EC50 [2, 21] [µM] | Activity [4] [%] | other results
Fc1cc(F)cc(-c2ncnc3[nH]c(C(F)(F)F)nc23)c1 | 4 | 54 | 
FC(F)(F)c1ccc(-c2ncnc3[nH]c(C(F)(F)F)nc23)cc1 | 1.2 | 45 | 
Oc1ccc(-c2ccnc3[nH]c(C(F)(F)F)nc23)cc1 |  |  | EC50 ([2]; l6): Not_active
COc1ccc(-c2ccnc3[nH]c(C(F)(F)F)nc23)cc1 |  |  | EC50 ([2]; l6): Not_active
Fc1ccccc1Oc1ccc2nc(C(F)(F)F)[nH]c2n1 | 30.8 | 30 | 
FC(F)(F)c1cccc(-c2ccc3nc(C(F)(F)F)[nH]c3n2)c1 | 3 | 36 | 
Fc1cc(F)cc(-c2ccc3nc(C(F)(F)F)[nH]c3n2)c1 | 3.8 | 32 | 
FC(F)(F)Oc1cccc(-c2ccnc3[nH]c(C(F)(F)F)nc23)c1 | 0.83 | 41 | Activity [5]: inactive; Activity [6]: inactive; Activity [7]: Non-toxic; half-life [1]: 78 min; Activity [8]: inactive; Activity [9]: inactive; Activity [10]: 200%; Activity [11]: Non-toxic; Cmax [3]: 22 µM; Activity [12]: Non-toxic; Activity [13]: 300%; Activity [14]: Non-toxic; Cmax [15]: 34.7 µM; half-life [16]: 222 min; Activity [17]: Active; Activity [18]: inactive; Activity [19]: Non-toxic
FC(F)(F)c1cccc(Oc2ccc3nc(C(F)(F)F)[nH]c3n2)c1 | 1.8 | 19 | 
FC(F)(F)c1cc(-c2ncnc3[nH]c(C(F)(F)F)nc23)cc(C(F)(F)F)c1 |  |  | Activity [20]: Toxic
FC(F)(F)c1ccc(-c2ccnc3[nH]c(C(F)(F)C(F)(F)F)nc23)cc1 | 4.69 | 31 | 
Fc1ccccc1Oc1ccnc2[nH]c(C(F)(F)F)nc12 | 58 | 12 | 
Fc1cc(F)cc(Oc2ccnc3[nH]c(C(F)(F)F)nc23)c1 | 11.9 | 43 | 
CC(F)(F)c1nc2c(-c3ccc(C(F)(F)F)cc3)ccnc2[nH]1 |  |  | EC50 ([2]; l6): Not_active
Fc1ccccc1-c1ccc2nc(C(F)(F)F)[nH]c2n1 | 16 | 35 | 
Fc1ccc(-c2ccc3nc(C(F)(F)F)[nH]c3n2)cc1 | 15 | 42 | 
Fc1ccc(-c2ccnc3[nH]c(C(F)(F)F)nc23)cc1F | 4.4 | 34 | 
Fc1cccc(Oc2ccc3nc(C(F)(F)F)[nH]c3n2)c1F | 7.1 | 39 | 
FC(F)(F)c1nc2c(-c3ccccc3)ccnc2[nH]1 |  |  | EC50 ([2]; l6): Not_active
Fc1cccc(Oc2ccc3nc(C(F)(F)F)[nH]c3n2)c1 | 10.3 | 47 | 
FC(F)(F)c1ccc(-c2ccnc3[nH]c(C(F)(F)F)nc23)cn1 | 2.6 | 25 | 
FC(F)(F)c1nc2c(-c3cccc(Cl)c3)ccnc2[nH]1 | 2 | 32 | half-life [1]: 180 min; Cmax [3]: 18 µM
FC(F)(F)c1nc2c(-c3ccc(Cl)cc3)ccnc2[nH]1 | > 100 | 22 | 
